Holding throughout (assay type): in vivo
Test [1] relates to ApoE knockout mice. The test is described as follows: Sirius Red staining of collagen in aortic sinus plaques. Conditions: male ApoE knockout mice, 100 mg/kg orally twice a day for 12 weeks; compared with control group. As to the method:
(§1) Home breeding male ApoE knockout mice, (C57BL/6J-ApoE<tmlUnc>, Jackson Labo™) were bred under common condition, 8 weeks old, were used for test.
(§2) The compound 1 (Example 32, WO98/54153) and control drug, CI-1011 (Example 5, WO 94/26702), were synthesized according to methods described in each publication. The compound 1 and CI-1011 were dissolved (the compound 1) or suspended (CI-1011) in aqueous solution of 0.5% methylcellulose (MC). The solution or suspension was prepared to be a dose of 100 mg/kg and a volume for administration of 0.1 mL/10 g body weight. The control group (no drug administered group) received the solvent, aqueous solution of 0.5% methylcellulose (MC). […]
(§3) After collecting the blood, animals were undergone thoracotomy and 20-G injection needle was punctured into the cardiac apex. […] Using the specimens of Victoria blue-hematoxylin and eosin staining, the internal elastic layer was specified by observation of optical microscope, and the cross-sectional area of the plaques was analyzed (Win ROOF, Mitsuya Shoji K.K.). Similarly, the area of macrophages was measured by using the specimens of macrophage immunohistochemical staining, and a ratio in total area of the plaques (the occupancy rate of macrophages) was calculated. […]

The subject of test [2] is ApoE knockout mice. Description: Macrophage immunohistochemical staining (anti-CD11b antibody) of aortic sinus plaques. Conditions: male ApoE knockout mice, 100 mg/kg orally twice a day for 12 weeks; compared with control group. The method, then: as §1, §2, §3
The test system of test [3] is ApoE knockout mice. The test is described as follows: Plasma total cholesterol level in ApoE knockout mice with primary hyperlipidemia. Conditions: male ApoE knockout mice, 100 mg/kg orally twice a day for 12 weeks; mean±standard error; control group 641.8±23.0. The method, then:
as §1
The compound 1 (Example 32, WO98/54153) and control drug, CI-1011 (Example 5, WO 94/26702), were synthesized according to methods described in each publication. The compound 1 and CI-1011 were dissolved (the compound 1) or suspended (CI-1011) in aqueous solution of 0.5% methylcellulose (MC). The solution or suspension was prepared to be a dose of 100 mg/kg and a volume for administration of 0.1 mL/10 g body weight. The control group (no drug administered group) received the solvent, aqueous solution of 0.5% methylcellulose (MC). Prepared drug solution and suspension were administered twice a day, orally, for continuing to 12 weeks (up to 20 weeks old) (total 3 groups, each 15 animal).
After ending the final administration, mice were fasted. In the next morning, mice were laparotomized under pentobarbital sodium anesthesia to expose abdominal vein and collected blood sample 1 mL. The collected blood was centrifuged at 3000 rpm for 15 minutes to collect the plasma. Plasma total cholesterol level was assayed by using cholesterol E-test Wako (cholesterol oxidase DAOS method).
Obtained results are shown in mean±standard error. Test of significance between the control group and the drug-administered group is performed by Dunnett's test.

Test [4] has as its system ApoE knockout mice. The test is described as follows: Azan staining of aortic sinus plaques. Conditions: male ApoE knockout mice, 100 mg/kg orally twice a day for 12 weeks; compared with control group. As to the method:
as §1, §2, §3

Test [5] concerns ApoE knockout mice. The test is described as follows: Cross-sectional area of the plaques in aortic sinus, Victoria blue-hematoxylin and eosin staining. The following applies: male ApoE knockout mice, 100 mg/kg orally twice a day for 12 weeks, mean±standard error, control group 0.23±0.03. As to the method: as §1, §2, §3

This note sets out measurements from patent publication US20110015206A1, “METHOD OF STABILIZING LIPID-RICH PLAQUE AND METHOD OF PREVENTING RUPTURE THEREOF” (KOWA CO., LTD., priority 2003, published 2011).

On to `CSc1cc(C)nc(SC)c1NC(=O)CN1CCN(CCSc2nc3ccccc3[nH]2)CC1` [compound 1, 2-[4-[2-(benzimidazol-2-ylthio)ethyl]piperazin-1-yl]-N-[2,4-bis(methylthio)-6-methyl-3-pyridyl]acetamide], for which the “Sirius Red staining, collagen fibers (observation)” value in the test on ApoE knockout mice [1] is “compactly arranged collagen fibers were observed in whole plaques”. Also, the “macrophage immunohistochemical staining (observation)” value with ApoE knockout mice [2] is “the macrophages were occasionally observed”. Besides, the “plasma total cholesterol level” value with ApoE knockout mice [3] is 535.0 ± 22.8 mg/dL. The “Azan staining, composition of the plaques (observation)” value with ApoE knockout mice [4] was “the plaques consisted of small area of cellular components and large numbers of surrounding extracellular matrix”. Besides, the “cross-sectional area of the plaques” value with ApoE knockout mice [5] was found to be 0.22±0.03 mm^2.

On to `CC(C)c1cc(C(C)C)c(CC(=O)NS(=O)(=O)Oc2c(C(C)C)cccc2C(C)C)c(C(C)C)c1` [CI-1011, avasimibe], for which, in the test on ApoE knockout mice [1], the “Sirius Red staining, collagen fibers (observation)” value is “smaller numbers of collagen fibers were observed as compared with the control group”. In addition, in the test on ApoE knockout mice [2], the “macrophage immunohistochemical staining (observation)” value was “the macrophages were observed abundantly in whole plaques”. Also, in the test with ApoE knockout mice [3], the “plasma total cholesterol level” value turned out to be 360.3 ± 19.4 mg/dL. For the same compound, in the test with ApoE knockout mice [4], the “Azan staining, composition of the plaques (observation)” value was “the plaques consisted largely of red stained macrophage and the blue stained extracellular matrix was scanty”. Further, the “cross-sectional area of the plaques” value with ApoE knockout mice [5] stood at 0.09±0.01 mm^2.
